From PubChem BioAssay AID330 (DTP/NCI, 2004)
Values joined by “and” are separate entries in the source; they are usually repeats but may differ in a detail not shown here. Equal values may be shown once. Toxic doses and inconclusive results are not listed.

Test system: P388 leukemia ip, CD2F1 mice, survival T/C
Assay: NCI In Vivo Anticancer Drug Screen. Data for tumor model P388 Leukemia (intraperitoneal) in CD2F1 (CDF1) mice
Conditions: endpoint: median survival time, higher = longer survival
How it was run: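 Mice carrying the transplanted tumor received test compound or vehicle. Survival was recorded in each group, and the value is the treated-group measurement divided by that of the vehicle-treated control group.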

[1] = dose: 50.0 mg/kg/injection, schedule: Q01DX009 (ip), vehicle: saline with Tween-80
[2] = dose: 100.0 mg/kg/injection, schedule: Q01DX009 (ip), vehicle: saline with Tween-80
[3] = dose: 200.0 mg/kg/injection, schedule: Q01DX009 (ip), vehicle: saline with Tween-80
[4] = dose: 60.0 mg/kg/injection, schedule: Q01DX005 (ip), vehicle: Klucel (hydroxypropylcellulose) (HPC)
[5] = dose: 120.0 mg/kg/injection, schedule: Q01DX005 (ip), vehicle: Klucel (hydroxypropylcellulose) (HPC)
[6] = dose: 50.0 mg/kg/injection, schedule: Q01DX005 (ip), vehicle: Klucel (hydroxypropylcellulose) (HPC)
[7] = dose: 100.0 mg/kg/injection, schedule: Q01DX005 (ip), vehicle: Klucel (hydroxypropylcellulose) (HPC)
[8] = dose: 50.0 mg/kg/injection, schedule: Q01DX009 (ip), vehicle: saline
[9] = dose: 100.0 mg/kg/injection, schedule: Q01DX009 (ip), vehicle: saline
[10] = dose: 200.0 mg/kg/injection, schedule: Q01DX009 (ip), vehicle: saline
[11] = dose: 25.0 mg/kg/injection, schedule: Q01DX009 (ip), vehicle: saline with Tween-80
[12] = dose: 60.0 mg/kg/injection, schedule: Q01DX005 (ip), vehicle: saline
[13] = dose: 120.0 mg/kg/injection, schedule: Q01DX005 (ip), vehicle: saline
[14] = dose: 240.0 mg/kg/injection, schedule: Q01DX005 (ip), vehicle: saline
[15] = dose: 50.0 mg/kg/injection, schedule: Q01DX009 (ip), vehicle: Klucel (hydroxypropylcellulose) (HPC)
[16] = dose: 100.0 mg/kg/injection, schedule: Q01DX009 (ip), vehicle: Klucel (hydroxypropylcellulose) (HPC)
[17] = dose: 200.0 mg/kg/injection, schedule: Q01DX009 (ip), vehicle: Klucel (hydroxypropylcellulose) (HPC)
[18] = dose: 12.5 mg/kg/injection, schedule: Q01DX009 (ip), vehicle: saline with Tween-80

With `Oc1ccc[n+](CCCCCC[n+]2cccc(O)c2)c1` the T/C (dose: 12.5 mg/kg/injection, schedule: Q01DX009 (ip), vehicle: water) was 118 % of control, the T/C (dose: 25.0 mg/kg/injection, schedule: Q01DX009 (ip), vehicle: water) was 105 % of control and the T/C (dose: 50.0 mg/kg/injection, schedule: Q01DX009 (ip), vehicle: water) was 110 % of control. The T/C (dose: 100.0 mg/kg/injection, schedule: Q01DX009 (ip), vehicle: water) was 112 % of control, the T/C (dose: 200.0 mg/kg/injection, schedule: Q01DX009 (ip), vehicle: water) was 102 % of control and the T/C (dose: 400.0 mg/kg/injection, schedule: Q01DX009 (ip), vehicle: water) was 102 % of control.
`CCCCCCCCCCSc1n[nH]c(=S)s1` was tested, and the T/C (dose: 50.0 mg/kg/injection, schedule: Q01DX005 (ip), vehicle: saline with Tween-80) was 100 % of control, the T/C (dose: 100.0 mg/kg/injection, schedule: Q01DX005 (ip), vehicle: saline with Tween-80) was 100 % of control and the T/C (dose: 200.0 mg/kg/injection, schedule: Q01DX005 (ip), vehicle: saline with Tween-80) was 105 % of control.
In the case of `CC(C)NCC(O)c1ccc(O)c(NC=O)c1` (configuration not stated), the T/C [1] is reported as 102 % of control, the T/C [2] is reported as 104 % of control and the T/C [3] is reported as 100 % of control.
`CC(C)CC1N=C(NN=C(CCl)CCl)SP1(=O)NCCCCCCNP1(=O)SC(NN=C(CCl)CCl)=NC1CC(C)C` (configuration not stated) was tested, and the T/C [4] was 100 % of control, the T/C [5] was 103 % of control and the T/C (dose: 240.0 mg/kg/injection, schedule: Q01DX005 (ip), vehicle: Klucel (hydroxypropylcellulose) (HPC)) was 102 % of control.
With `CCP(=S)(CC)[S][Sn]([CH3])([CH3])[S]P(=S)(CC)CC` the T/C [6] was 118 % of control and the T/C [7] was 115 % of control.
For `C[S+](C)CCC[S+](C)C`, the T/C [8] was 105 % of control, the T/C [9] was 99 % of control and the T/C [10] was 105 % of control.
For `CC(C)CNC(=O)CNC(=O)C=[N+]=[N-]`, the T/C [1] was 104 % of control, the T/C [2] was 104 % of control and the T/C [3] was 104 % of control.
In the case of `COC(=O)C1CC(=O)N(C)c2sc(C)c(C)c2C1=O` (configuration not stated), the T/C [11] is reported as 103 % of control, the T/C [1] is reported as 93 % of control and the T/C [2] is reported as 94 % of control. The T/C (dose: 100.0 mg/kg/injection, schedule: Q04DX003 (ip), vehicle: saline with Tween-80) was 97 % of control, the T/C [3] was 94 % of control and the T/C (dose: 200.0 mg/kg/injection, schedule: Q04DX003 (ip), vehicle: saline with Tween-80) was 93 % of control.
`CCC(C)SSc1ccccc1C(=O)Nc1ccc(Cl)cc1` (configuration not stated) was tested, and the T/C (dose: 60.0 mg/kg/injection, schedule: Q01DX005 (ip), vehicle: saline with Tween-80) was 95 % of control, the T/C (dose: 120.0 mg/kg/injection, schedule: Q01DX005 (ip), vehicle: saline with Tween-80) was 97 % of control and the T/C (dose: 240.0 mg/kg/injection, schedule: Q01DX005 (ip), vehicle: saline with Tween-80) was 99 % of control.
For `COc1ccccc1N=N/C(=N\Nc1ccccc1OC)C(=O)Nc1ccccc1`, the T/C (dose: 6.25 mg/kg/injection, schedule: Q01DX009 (ip), vehicle: saline) was 89 % of control, the T/C (dose: 12.5 mg/kg/injection, schedule: Q01DX009 (ip), vehicle: saline) was 91 % of control and the T/C (dose: 25.0 mg/kg/injection, schedule: Q01DX009 (ip), vehicle: saline) was 90 % of control. For the same molecule, the T/C [9] was 93 % of control.
With `COC(=O)NC(NC(=O)OC)C(F)(F)C(NC(=O)OC)NC(=O)OC` the T/C [4] was 96 % of control and the T/C [5] was 95 % of control.
In the case of `CCCCCCCCCCCC(=O)NC1CC(O[C@H]2C[C@](O)(C(C)=O)Cc3c(O)c4c(c(O)c32)C(=O)c2c(OC)cccc2C4=O)OC(C)C1O` (some centres not stated), the T/C (dose: 0.75 mg/kg/injection, schedule: Q01DX009 (ip), vehicle: other) is reported as 119 % of control, the T/C (dose: 2.0 mg/kg/injection, schedule: Q04DX003 (ip), vehicle: other) is reported as 91 % of control and the T/C (dose: 4.0 mg/kg/injection, schedule: Q04DX003 (ip), vehicle: other) is reported as 107 % of control. For the same molecule, the T/C (dose: 6.0 mg/kg/injection, schedule: Q01DX009 (ip), vehicle: other) was 150 % of control, the T/C (dose: 8.0 mg/kg/injection, schedule: Q04DX003 (ip), vehicle: other) was 98 % of control and the T/C (dose: 12.0 mg/kg/injection, schedule: Q01DX009 (ip), vehicle: other) was 158 % of control. The T/C (dose: 16.0 mg/kg/injection, schedule: Q04DX003 (ip), vehicle: other) was 102 % of control and 111 % of control, the T/C (dose: 32.0 mg/kg/injection, schedule: Q04DX003 (ip), vehicle: other) was 114 % of control and 120 % of control and the T/C (dose: 64.0 mg/kg/injection, schedule: Q04DX003 (ip), vehicle: other) was 120 % of control. For the same molecule, the T/C (dose: 128.0 mg/kg/injection, schedule: Q04DX003 (ip), vehicle: other) was 123 % of control and the T/C (dose: 256.0 mg/kg/injection, schedule: Q04DX003 (ip), vehicle: other) was 100 % of control.
`COC(=O)c1cc(C)cc(O)c1C` was tested, and the T/C [1] was 102 % of control, the T/C [2] was 101 % of control and the T/C [3] was 99 % of control. For the same molecule, the T/C (dose: 400.0 mg/kg/injection, schedule: Q01DX009 (ip), vehicle: saline with Tween-80) was 101 % of control.
In the case of `COc1ccc(C(=O)N/N=C2\C(=O)c3c(C)cc(C)cc3CC2(C)C)cc1`, the T/C [8] is reported as 100 % of control, the T/C [9] is reported as 100 % of control and the T/C [10] is reported as 94 % of control.
For `C#CCCCOC1CCCCO1` (configuration not stated), the T/C [12] was 100 % of control, the T/C [13] was 100 % of control and the T/C [14] was 100 % of control.
With `Cc1c([N+](=O)[O-])/c(=N/O)c2c(=O)c([N+](=O)[O-])coc2n1O` the T/C [15] was 108 % of control, the T/C [16] was 99 % of control and the T/C [17] was 90 % of control.
With `Oc1cc(CN2CCOCC2)c(O)cc1CN1CCOCC1` the T/C (dose: 1.56 mg/kg/injection, schedule: Q01DX009 (ip), vehicle: saline with Tween-80) was 100 % of control, the T/C (dose: 3.13 mg/kg/injection, schedule: Q01DX009 (ip), vehicle: saline with Tween-80) was 119 % of control and 121 % of control and the T/C (dose: 6.25 mg/kg/injection, schedule: Q01DX009 (ip), vehicle: saline with Tween-80) was 113 % of control. For the same molecule, the T/C [18] was 113 % of control and the T/C [11] was 117 % of control.
In the case of `CNc1ccc([N+](=O)[O-])cc1/C([O-])=C\[S+](C)(C)=O`, the T/C (dose: 100.0 mg/kg/injection, schedule: Q04DX003 (ip), vehicle: saline) is reported as 97 % of control, the T/C (dose: 200.0 mg/kg/injection, schedule: Q04DX003 (ip), vehicle: saline) is reported as 106 % of control and the T/C (dose: 400.0 mg/kg/injection, schedule: Q04DX003 (ip), vehicle: saline) is reported as 97 % of control.
In the case of `COC(=O)C1=C(C(=O)OC)P2(C)(C)SC(=S)N2C1(c1ccccc1)c1ccccc1`, the T/C [6] is reported as 102 % of control and the T/C [7] is reported as 91 % of control.
In the case of `CC[C@]1(O)Cc2c(O)c3c(c(O)c2[C@@H](OC2CC(N)C(O)C(C)O2)C1)C(=O)c1c(OC)cccc1C3=O` (some centres not stated), the T/C (dose: 1.2 mg/kg/injection, schedule: Q04DX003 (ip), vehicle: water) is reported as 117 % of control, the T/C (dose: 1.56 mg/kg/injection, schedule: Q01DX009 (ip), vehicle: water) is reported as 151 % of control and 169 % of control and the T/C (dose: 2.4 mg/kg/injection, schedule: Q04DX003 (ip), vehicle: water) is reported as 119 % of control. The T/C (dose: 3.13 mg/kg/injection, schedule: Q01DX009 (ip), vehicle: water) was 156 % of control and 163 % of control, the T/C (dose: 6.25 mg/kg/injection, schedule: Q01DX009 (ip), vehicle: water) was 95 % of control and the T/C (dose: 37.5 mg/kg/injection, schedule: Q04DX003 (ip), vehicle: water) was 103 % of control.
`O=C(c1ccccc1)C(c1ccccc1)n1ncc2c1CCOC2` (configuration not stated) was tested, and the T/C (dose: 100.0 mg/kg/injection, schedule: Q04DX003 (ip), vehicle: Klucel (hydroxypropylcellulose) (HPC)) was 105 % of control, the T/C (dose: 200.0 mg/kg/injection, schedule: Q04DX003 (ip), vehicle: Klucel (hydroxypropylcellulose) (HPC)) was 96 % of control and the T/C (dose: 400.0 mg/kg/injection, schedule: Q04DX003 (ip), vehicle: Klucel (hydroxypropylcellulose) (HPC)) was 108 % of control.
With `CCCCCCC(=O)/C=C/c1cc(OC)ccc1OC` the T/C [18] was 100 % of control, the T/C [11] was 99 % of control and the T/C [1] was 99 % of control. The T/C [2] was 99 % of control and 96 % of control and the T/C [3] was 97 % of control.
With `COc1ccc2c(c1)CCC1=C2CCP1(C)=S` (configuration not stated) the T/C [15] was 106 % of control, the T/C [16] was 97 % of control and the T/C [17] was 88 % of control.
For `CCOc1ccc(/C=N/NC(=O)c2ccc(O)c(OC)c2)cc1OC`, the T/C [12] was 100 % of control, the T/C [13] was 102 % of control and the T/C [14] was 95 % of control.
